Measurements taken from patent US7973061B2, “Anaplastic lymphoma kinase modulators and methods of use” (Exelixis, Inc., priority 2004, dated 2011).

Each compound was assayed against T1, ALK (baculovirus expressed human ALK kinase domain F1098-K1410) (Homo sapiens, UniProt Q9UM73) (assay: biochemical). Settings: 1 μM ATP, 4 μM poly-AEKY, 12 nM ALK, 2 hours at ambient temperature; read-out: ALK IC50.
T1 construct: human ALK kinase domain F1098-K1410; made in house
How it was run: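 Inhibitors were tested at 10 concentrations, and IC50 was derived from a sigmoidal fit (Min, Max, Hill slope). Kinase activity was measured as percent ATP left after a 2 h reaction at room temperature, detected by luciferase-luciferin chemiluminescence. The ATP level was set close to KM for the ALK kinase domain F1098-K1410.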

T1 sequence (Q9UM73 1098-1410): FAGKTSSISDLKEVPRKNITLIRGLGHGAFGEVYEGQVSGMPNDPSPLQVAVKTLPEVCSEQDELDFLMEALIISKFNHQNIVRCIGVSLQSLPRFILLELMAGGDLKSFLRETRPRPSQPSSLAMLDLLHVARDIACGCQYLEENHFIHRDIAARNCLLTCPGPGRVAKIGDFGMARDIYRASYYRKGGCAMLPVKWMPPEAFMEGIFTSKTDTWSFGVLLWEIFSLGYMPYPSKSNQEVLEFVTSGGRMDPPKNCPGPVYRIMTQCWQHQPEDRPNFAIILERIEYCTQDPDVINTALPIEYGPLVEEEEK

Q: With C[C@H](CNC(=O)c1coc(CNC(=O)COc2ccc(OC(F)(F)F)cc2)n1)c1ccccc1 [Entry 240, N-[(2S)-2-phenylpropyl]-2-({[({4-[(trifluoromethyl)oxy]phenyl}oxy)acetyl]amino}methyl)-1,3-oxazole-4-carboxamide] as the compound, how does the IC50 read?
A: 500 to 2000 nM

Q: For COc1ccc([C@H](C)NC(=O)c2csc(CNC(=O)COc3ccc(OC(F)(F)F)cc3)n2)cc1 [Entry 183, N-{(1S)-1-[4-(methyloxy)phenyl]ethyl}-2-({[({4-[(trifluoromethyl)oxy]phenyl}oxy)acetyl]amino}methyl)-1,3-thiazole-4-carboxamide], which IC50 is on record?
A: 50 to 500 nM

Q: With O=C(COc1ccc(OC(F)(F)F)cc1)NCc1nc(C(=O)NCc2ccc(F)cc2F)cs1 [Entry 258, N-[(2,4-difluorophenyl)methyl]-2-({[({4-[(trifluoromethyl)oxy]phenyl}oxy)acetyl]amino}methyl)-1,3-thiazole-4-carboxamide] as the compound, how does the IC50 read?
A: 500 to 2000 nM

Q: With CC(NC(=O)c1csc(CNC(=O)COc2ccc(OC(F)(F)F)cc2)n1)c1ccccc1 (centres unmarked) [Entry 108, N-(1-phenylethyl)-2-({[({4-[(trifluoromethyl)oxy]phenyl}oxy)acetyl]amino}methyl)-1,3-thiazole-4-carboxamide] as the compound, how does the IC50 read?
A: 50 to 500 nM

Q: With CCC(NC(=O)c1csc(CNC(=O)COc2ccc(OC(F)(F)F)cc2)n1)c1ccccc1 (centres unmarked) [Entry 65, N-(1-phenylpropyl)-2-({[({4-[(trifluoromethyl)oxy]phenyl}oxy)acetyl]amino}methyl)-1,3-thiazole-4-carboxamide] as the compound, how does the IC50 read?
A: 50 to 500 nM

Q: For Cc1ccc(CCNC(=O)c2coc(CNC(=O)COc3ccc(OC(F)(F)F)cc3)n2)cc1C [Entry 211, N-[2-(3,4-dimethylphenyl)ethyl]-2-({[({4-[(trifluoromethyl)oxy]phenyl}oxy)acetyl]amino}methyl)-1,3-oxazole-4-carboxamide], which IC50 is on record?
A: 50 to 500 nM

Q: O=C(COc1ccc(OC(F)(F)F)cc1)NCc1nc(C(=O)N2CC[C@@H]3CCCC[C@@H]3C2)cs1 [Entry 271, N-({4-[(4aS,8aS)-octahydroisoquinolin-2(1H)-ylcarbonyl]-1,3-thiazol-2-yl}methyl)-2-({4-[(trifluoromethyl)oxy]phenyl}oxy)acetamide] was tested. Which IC50 did it give?
A: 500 to 2000 nM

Q: CCOC(=O)N1CCC(NC(=O)c2csc(CNC(=O)COc3ccc(OC(F)(F)F)cc3)n2)CC1 [Entry 283, ethyl 4-({[2-({[({4-[(trifluoromethyl)oxy]phenyl}oxy)acetyl]amino}methyl)-1,3-thiazol-4-yl]carbonyl}amino)piperidine-1-carboxylate] was tested. Which IC50 did it give?
A: 500 to 2000 nM

Q: For CCC1COC(C)(CCC(C)C)N1C(=O)c1csc(CNC(=O)COc2ccc(OC(F)(F)F)cc2)n1 (centres unmarked) [Entry 310, N-[(4-{[4-ethyl-2-methyl-2-(3-methylbutyl)-1,3-oxazolidin-3-yl]carbonyl}-1,3-thiazol-2-yl)methyl]-2-({4-[(trifluoromethyl)oxy]phenyl}oxy)acetamide], which IC50 is on record?
A: > 2000 nM

Q: For O=C(COc1ccc(OC(F)(F)F)cc1)NCc1nc(C(=O)NCCc2ccc(F)cc2)cs1 [Entry 24, N-[2-(4-fluorophenyl)ethyl]-2-({[({4-[(trifluoromethyl)oxy]phenyl}oxy)acetyl]amino}methyl)-1,3-thiazole-4-carboxamide], which IC50 is on record?
A: < 50 nM

Q: Which IC50 does the source give for COc1ccc(OC)c(CNC(=O)c2csc(CNC(=O)COc3ccc(OC(F)(F)F)cc3)n2)c1 [Entry 112, N-{[2,5-bis(methyloxy)phenyl]methyl}-2-({[({4-[(trifluoromethyl)oxy]phenyl}oxy)acetyl]amino}methyl)-1,3-thiazole-4-carboxamide] here?
A: 50 to 500 nM

Q: How did the IC50 turn out when COc1cc(CNC(=O)c2csc(CNC(=O)COc3ccc(OC(F)(F)F)cc3)n2)cc(OC)c1 [Entry 121, N-{[3,5-bis(methyloxy)phenyl]methyl}-2-({[({4-[(trifluoromethyl)oxy]phenyl}oxy)acetyl]amino}methyl)-1,3-thiazole-4-carboxamide] was run?
A: 50 to 500 nM

Q: How did the IC50 turn out when O=C(COc1ccc(OC(F)(F)F)cc1)NCc1nc(C(=O)NCc2ccc(F)cc2)cs1 [Entry 206, N-[(4-fluorophenyl)methyl]-2-({[({4-[(trifluoromethyl)oxy]phenyl}oxy)acetyl]amino}methyl)-1,3-thiazole-4-carboxamide] was run?
A: 50 to 500 nM

Q: C[C@@H](NC(=O)c1csc(CNC(=O)COc2ccc(OC(F)(F)F)cc2)n1)C(C)(C)C [Entry 233, 2-({[({4-[(trifluoromethyl)oxy]phenyl}oxy)acetyl]amino}methyl)-N-[(1R)-1,2,2-trimethylpropyl]-1,3-thiazole-4-carboxamide] was tested. Which IC50 did it give?
A: 500 to 2000 nM

Q: CCCC1CCN(C(=O)c2csc(CNC(=O)COc3ccc(OC(F)(F)F)cc3)n2)CC1 [Entry 245, N-({4-[(4-propylpiperidin-1-yl)carbonyl]-1,3-thiazol-2-yl}methyl)-2-({4-[(trifluoromethyl)oxy]phenyl}oxy)acetamide] was tested. Which IC50 did it give?
A: 500 to 2000 nM

Q: With O=C(COc1ccc(OC(F)(F)F)cc1)NCc1nc(C(=O)NCCc2cccc(F)c2)cs1 [Entry 14, N-[2-(3-fluorophenyl)ethyl]-2-({[({4-[(trifluoromethyl)oxy]phenyl}oxy)acetyl]amino}methyl)-1,3-thiazole-4-carboxamide] as the compound, how does the IC50 read?
A: < 50 nM

Q: For NS(=O)(=O)c1ccc(CCNC(=O)c2csc(CNC(=O)COc3ccc(OC(F)(F)F)cc3)n2)cc1 [Entry 13, N-{2-[4-(aminosulfonyl)phenyl]ethyl}-2-({[({4-[(trifluoromethyl)oxy]phenyl}oxy)acetyl]amino}methyl)-1,3-thiazole-4-carboxamide], which IC50 is on record?
A: < 50 nM

Q: Which IC50 does the source give for O=C(COc1ccc(OC(F)(F)F)cc1)NCc1nc(C(=O)NCc2ccco2)cs1 [Entry 249, N-(furan-2-ylmethyl)-2-({[({4-[(trifluoromethyl)oxy]phenyl}oxy)acetyl]amino}methyl)-1,3-thiazole-4-carboxamide] here?
A: 500 to 2000 nM

Q: How did the IC50 turn out when COc1ccc(CCNC(=O)c2coc(CNC(=O)COc3ccc(OC(F)(F)F)cc3)n2)cc1 [Entry 224, N-{2-[4-(methyloxy)phenyl]ethyl}-2-({[({4-[(trifluoromethyl)oxy]phenyl}oxy)acetyl]amino}methyl)-1,3-oxazole-4-carboxamide] was run?
A: 500 to 2000 nM

Q: NC(=O)[C@H](Cc1ccccc1)NC(=O)c1csc(CNC(=O)COc2ccc(OC(F)(F)F)cc2)n1 [Entry 188, Nalpha-{[2-({[({4-[(trifluoromethyl)oxy]phenyl}oxy)acetyl]amino}methyl)-1,3-thiazol-4-yl]carbonyl}-L-phenylalaninamide] was tested. Which IC50 did it give?
A: 50 to 500 nM

Q: CC(CNC(=O)c1csc(CNC(=O)COc2ccc(OC(F)(F)F)cc2)n1)c1ccccc1 (centres unmarked) [Entry 7, N-(2-phenylpropyl)-2-({[({4-[(trifluoromethyl)oxy]phenyl}oxy)acetyl]amino}methyl)-1,3-thiazole-4-carboxamide] was tested. Which IC50 did it give?
A: < 50 nM

Q: With COc1ccccc1CNC(=O)c1csc(CNC(=O)COc2ccc(OC(F)(F)F)cc2)n1 [Entry 17, N-{[2-(methyloxy)phenyl]methyl}-2-({[({4-[(trifluoromethyl)oxy]phenyl}oxy)acetyl]amino}methyl)-1,3-thiazole-4-carboxamide] as the compound, how does the IC50 read?
A: < 50 nM

Q: With O=C(COc1ccc(OC(F)(F)F)cc1)NCc1nc(C(=O)N[C@H]2CCCc3ccccc32)cs1 [Entry 79, N-[(1S)-1,2,3,4-tetrahydronaphthalen-1-yl]-2-({[({4-[(trifluoromethyl)oxy]phenyl}oxy)acetyl]amino}methyl)-1,3-thiazole-4-carboxamide] as the compound, how does the IC50 read?
A: 50 to 500 nM

Q: Which IC50 does the source give for CC(C)(C)CCNC(=O)c1csc(CNC(=O)COc2ccc(OC(F)(F)F)cc2)n1 [Entry 175, N-(3,3-dimethylbutyl)-2-({[({4-[(trifluoromethyl)oxy]phenyl}oxy)acetyl]amino}methyl)-1,3-thiazole-4-carboxamide] here?
A: 50 to 500 nM

Q: With NCc1nc(C(=O)NCCc2cccc(Cl)c2)co1 [Entry 307, 2-(aminomethyl)-N-[2-(3-chlorophenyl)ethyl]-1,3-oxazole-4-carboxamide] as the compound, how does the IC50 read?
A: > 2000 nM

Q: With COc1ccccc1CNC(=O)c1csc(CNC(=O)COc2ccc(Br)cc2)n1 [Entry 277, 2-[({[(4-bromophenyl)oxy]acetyl}amino)methyl]-N-{[2-(methyloxy)phenyl]methyl}-1,3-thiazole-4-carboxamide] as the compound, how does the IC50 read?
A: 500 to 2000 nM

Q: For O=C(COc1ccc(OC(F)(F)F)cc1)NCc1nc(C(=O)N[C@H]2CCC[C@@H]2OCc2ccccc2)cs1 [Entry 103, N-{(1S,2S)-2-[(phenylmethyl)oxy]cyclopentyl}-2-({[({4-[(trifluoromethyl)oxy]phenyl}oxy)acetyl]amino}methyl)-1,3-thiazole-4-carboxamide], which IC50 is on record?
A: 50 to 500 nM

Q: For CC1CCCCC1NC(=O)c1csc(CNC(=O)COc2ccc(OC(F)(F)F)cc2)n1 (centres unmarked) [Entry 87, N-(2-methylcyclohexyl)-2-({[({4-[(trifluoromethyl)oxy]phenyl}oxy)acetyl]amino}methyl)-1,3-thiazole-4-carboxamide], which IC50 is on record?
A: 50 to 500 nM

Q: For O=C(COc1ccc(OC(F)(F)F)cc1)NCc1nc(C(=O)NCCN2CCCCC2)cs1 [Entry 290, N-(2-piperidin-1-ylethyl)-2-({[({4-[(trifluoromethyl)oxy]phenyl}oxy)acetyl]amino}methyl)-1,3-thiazole-4-carboxamide], which IC50 is on record?
A: 500 to 2000 nM

Q: With CC(C)CCNC(=O)c1csc(CNC(=O)COc2ccc(OC(F)(F)F)cc2)n1 [Entry 138, N-(3-methylbutyl)-2-({[({4-[(trifluoromethyl)oxy]phenyl}oxy)acetyl]amino}methyl)-1,3-thiazole-4-carboxamide] as the compound, how does the IC50 read?
A: 50 to 500 nM

Q: For COc1ccccc1CNC(=O)c1csc(CNC(=O)Cc2ccc3ccccc3c2)n1 [Entry 229, N-{[2-(methyloxy)phenyl]methyl}-2-{[(naphthalen-2-ylacetyl)amino]methyl}-1,3-thiazole-4-carboxamide], which IC50 is on record?
A: 500 to 2000 nM

Q: How did the IC50 turn out when CC(C)c1ccc(NC(=O)NCc2nc(C(=O)NCCc3cccc(Cl)c3)cs2)cc1 [Entry 25, N-[2-(3-chlorophenyl)ethyl]-2-{[({[4-(1-methylethyl)phenyl]amino}carbonyl)amino]methyl}-1,3-thiazole-4-carboxamide] was run?
A: < 50 nM
